# Experimental data taken from patent publication US10598667B2, “Functional illumination in living cells” (The Regents of the University of California, priority 2013, dated 2020).
# Entries after “also recorded” stand apart in the source; their conditions may differ. Where no end group is shown, it is not given here. [ ]: non-standard residue; d: D form. pS = N[C@@H](COP(=O)(O)O)C(=O)O
# Key:
# [1] = Real time association and dissociation of dye to bead (color intensity); type: binding
# Experimental: (§1) Dye solutions were prepared in PBS to a 100 μM final concentration and 5 mL of each dye solution were added into the 60 mm dish with beads. Three dyes were tested sequentially. The dish was kept swirling at 60 rpm on the rotator. The dye binding was monitored for 90 minutes, and then the dye solution was removed from the dishes and PBS was added to rinse the beads on the bottom to remove the color dye. The PBS solution was changed every 30 min and the dish was always swirled as above. The beads color change was also observed and recorded at certain time interval during the whole wash process to collect data of color dissociation. Before adding the next dye solution, beads were washed with 70% ethanol to completely remove residual dye and were rinsed with PBS solution three times afterwards.
# (§2) A representative positive bead for each color was selected for the color binding and dissociation study. A series of images were taken at different time points during the binding and washing process. From the images taken, regions of interest (ROI) with the same size were picked up from the color beads and colorless control beads. The value from the control bead was subtracted from the color bead to get quantitated color value for each single color bead. The measure of the color intensity for each color dye was performed using the Kodak Image Station 2000MM.
# (§3) With the PDMS affixed bead method, it is possible to dynamically observe the peptide-dye interaction on each individual immobilized bead in real time. To further characterize the binding profile for each of the target/sequence interactions, beads #1, #4 and #10 were selected for binding and dissociation study with each respective target dye, by measuring the intensity of the resulting color accumulation on the bead surface at different time points. The values obtained for color intensity across progressing time points were plotted and the profiles for the three dye/bead interactions were compared. The association and dissociation rate of each organic dye to its respective binding peptide was evaluated. […]
# [2] = Sequential screening of PDMS affixed OBOC bead array with three dyes; type: binding; details: 100 μM dye in PBS, three dyes incubated sequentially on the same bead array
# Experimental: Silicon Elastomer Base was mixed completely with Silicone Elastomer Curing Agent at ratio 10:1 in volume and the solution was kept in vacuum container for 15 to 20 minutes to eliminate the gas bubbles formed during the mixing process. After the removal of all residual bubbles, approximately 0.5-1 mL of PDMS solution was added into the bottom of a 60 mm culture dish. The dish was then spun on a single wafer spin processor (Laurell Technologies Corporation®, model WS-6505-6NPP/Lite) to evenly distribute the solution over the plates, at a speed of 4000 rpm for 30 s. A 5 μm layer of PDMS was formed on the bottom of dish and was cured at 80° C. for 5 min or at room temperature for 24 hrs to allow for beads immobilization. Knowing that the PDMS coating was about 5 μm thick and the radius of bead was around 45 μm, the percentage of free bead surface area was estimated by the formula of [1-2πrh/4πr^2]×100% (h=thickness of PDMS layer; r=radius of bead) to be approximately 95%. The library beads resuspended in 70% ethanol solution were first randomly placed on the surface of a glass plate that was 10% smaller than the dish used in the experiment. After the ethanol evaporated, a syringe needle was used to adjust the dry beads to evenly redistribute beads on the glass surface. Then the dish was inverted and the PDMS layer was pressed down onto the glass plate with beads. The library beads were embedded partly inside the PDMS layer.
# as §1, §2
# The PDMS affixed bead array was incubated with three different dyes sequentially. […] Eleven beads were selected for further analysis based on their characteristic binding profiles (FIG. 2). […] The amino acid sequences of the peptides bound to the beads were determined (Table 1).
# [3] = Histone H2 tail OBOC library screening with DMHBI; type: binding; details: library peptide fused to N-terminal H2
# Experimental: An OBOC combinatorial library was prepared for the development of GESIs for probing histone H2 tail. The library design is shown in FIG. 20C, wherein X represents all 20 eukaryotic amino acids except for cysteine; all possible post-translational modification states of Ser-1 and Lys-5 are incorporated; and additional Xs at the N-terminus of the histone tail will provide necessary capturing residues for fluorescent dyes.
# [4] = Real time association and dissociation of dye to bead (color intensity); type: binding; remark: listed apart in the source
# Experimental: as §1, §2, §3
# [5] = MG binding of peptide ligands from screening and their derivatives; design: key to MG binding: −: no binding; +: weak binding; ++: mild binding; +++: strong binding; ++++: very strong binding; details: 11 hour incubation with 5 μM MG in PBS buffer (pH 7.4)
# [6] = Fluorescence titration of peptide in solution with MG, 2 mM Ca2+, 650 nm; type: binding
# Experimental: (§4) Two peptides that can activate MG with or without calcium sensitivity were selected for further characterization. A solution form of the two peptides were synthesized and titrated with MG in the presence of 2 mM Ca^2+. Fluorescent signal at 650 nm was measured. […] Computational modeling confirmed stably folded structure of peptide 12 upon MG binding, preventing intramolecular motions of MG (FIG. 8B, FIG. 10A, B). […] The immobilized peptides on TentaGel beads were then titrated with an increasing amount of MG in the presence and absence of 2 mM Ca^2+. Fluorescent emission at 650 nm by each individual bead was measured. […] Computational modeling further confirmed that stably folded structure of peptide 2 only forms upon calcium binding (FIG. 11B).
# HEK293 cells = assay: Dual-color confocal imaging of Cerulean-linker-peptide fusion proteins with MG and acetylcholine; type: cell-based
# From the text: To evaluate the utility of lead peptides in mammalian cells, individual peptide tags were fused to the C-terminus of a cyan fluorescence protein (Cerulean 3) anchored on the plasma membrane. An amino acid linker (GGSGSGGS: SEQ ID NO:33) was placed between C-terminus of Cerulean and the peptide to increase the solubility and stability of the recombinant fusion proteins. Goals for the design of fusion proteins are two-folds. First, the labeling ability of peptides can be readily detected by co-localization of both cyan and infrared fluorescence. Second, the calcium sensing ability of peptide can be tested by taking advantage of endogenous acetylcholine (Ach) receptors; Ach stimulus leads to transient calcium influx in cytosol, which may lead to increased MG fluorescence. Given the limited membrane permeability of MG, a relative high concentration of MG (5×10^−7 M) was used for the imaging assay. 48 hrs post-transfection, time-lapse, dual-color confocal fluorescence microscopy images were taken upon MG incubation, followed by Ach addition. […] The fluorescence intensity reached plateau within seconds and remains stable during the 10 mins period of imaging window. In contrast, no apparent infrared fluorescence was observed when membrane-anchored Cerulean control (without grafted peptide) was expressed upon MG addition (FIG. 15A). […]
# [7] = Titration of immobilized peptides on TentaGel beads with MG in presence and absence of 2 mM Ca2+; type: binding; details: presence vs absence of 2 mM Ca2+, peptide on bead
# Experimental: as §4
# [8] = Fluorescent activation of MG by peptide compared with LTA2 and LTA10; type: binding; details: preliminary data
# From the text: We expect to generate a toolbox of functional illuminant peptides that can be used in a broad range of biological applications. Translating the peptides identified in aim 1 to highly sensitive and specific functional illuminants in living cells, however, is more challenging. In this proposal, we will characterize the utility of these peptides in live cells with an emphasis on phosphorylation (Aim 2) and histone epigenetics (Aim 3). As indicated above, we plan to design and synthesize a series of dyes candidates for GESI development. We are cognizant that many organic dyes bind non-specifically to many proteins, but usually at rather high concentration (mM). […] It is also important to realize that not all binding events will activate fluorescence. […] This works in our favor as not all non-specific binding (if there is any) will lead to activation of the dyes. One concern that the previous reviewers have was the large number of Trp in our initial leads (e.g. LTA2 and LTA10). As shown in the preliminary data, many strong activators for MG have low number of Trp. For example, fluorescent activation of MG by LRRAS(P)LFYGMWYPST (SEQ ID NO:227), with only 1 Trp, is 4-5× brighter than that of LTA2 and LTA10.
substance,measurement,setting,value
CHTHILC (not fully specified (bridges); cysteine pairing not given here; also: bead-bound) [Bead #4],Time to maximum color binding,[1]; bead incubated with bromocresol purple,around 75 minutes
same,Time until color disappeared (dissociation),[1]; washing,≤ 72 h
same,Dye binding,[2]; listed as # 4,Bromocresol
same,Dye binding,[2]; listed as #4,only bind to bromocresol purple; also recorded: bind only to bromocresol purple
DPSWPNS(P)GRGK(Ac) (DPSWPN[pS]GRGK(Ac)),DMHBI activation,[3],DMHBI activating
CKWILPC (not fully specified (bridges); cysteine pairing not given here; also: bead-bound) [Bead #10],Time until colorization was seen,[4]; bead incubated with indigo carmine,within five minutes
same,Time until color completely gone (dissociation),[4]; washing with PBS,20 min
same,Binding and dissociation rates compared with indigo carmine,[1]; bromocresol purple,much slower
same,Dye binding,[2]; listed as #10,bind to both indigo carmine and bromocresol purple
DWWWDGFERLEE (synthetic genetically encoded small illuminant (GESI) malachite green (MG) binding Peptide 2),MG binding,[5],++
same,Binding characteristics in solution studies,[6],strong binding characteristics
same,Sensitivity to calcium upon acetylcholine stimulation,HEK293 cells,showed sensitivity to calcium
same,Increase of MG fluorescence intensity upon Ach addition,HEK293 cells; living cells,4 fold
same,Increase of MG binding affinity by calcium,[7],about 10 fold
same,Increase of MG binding affinity by calcium,[7]; listed as peptide 2,10 fold
TRPSMWS(P)GRGK(Ac) (TRPSMW[pS]GRGK(Ac)),DMHBI activation,[3],DMHBI activating
GLFDQES(P)GRGK (GLFDQE[pS]GRGK),DMHBI activation,[3],DMHBI activating
VWDGIRS(P)GRGK(Ac) (VWDGIR[pS]GRGK(Ac)),DMHBI activation,[3],DMHBI activating
CNSPDIC (not fully specified (bridges); cysteine pairing not given here; also: bead-bound) [Bead #1],Time after which color had not completely diminished (dissociation),[4]; after washing,> 72 h
same,Dye binding,[2]; listed as # 1,Malachite green
same,Dye binding,[2]; listed as #1,only bind to malachite green; also recorded: bind only to malachite green
LRRAS(P)LFYGMWYPST (LRRA[pS]LFYGMWYPST),"Fluorescent activation of MG, brightness relative to LTA2 and LTA10",[8],4-5 ×
